# Target: Cytochrome P450 3A4 (Homo sapiens, UniProt P08684)
# Experiment: CYP450 Enzyme Induction Study
# Experimental: A final incubation system of 500 μL contained 50 μL of liver microsomes (protein concentration: 0.2 mg/mL, Corning), 1 μL of mixed specific substrates of CYP450 (CYP1A2, CYP2B6, CYP2C9, CYP2C19, CYP2D6, CYP3A4), 398 μL of PBS (pH 7.4), 1 μL of specific positive inhibitor (positive control) or test compound (in acetonitrile) and 50 μL of NADPH+MgCl2. Samples were prepared in duplicate of 0.5 mL for each CYP450 subtype. For each tube, the 450 μL mixed solution of substrates and enzyme and the NADPH solution were separately pre-incubated at 37° C. for 5 min. The 50 μL mixed solution of NADPH+MgCl2 was added for reaction. At 30 min, 50 μL of the mixture was taken and 300 μL of glacial acetonitrile containing an internal standard was added to terminate the reaction. Additionally, 2 blanks of 500 μL each were prepared in parallel without adding NADPH as the negative control group.
# Sequence of Cytochrome P450 3A4 (P08684 whole entry): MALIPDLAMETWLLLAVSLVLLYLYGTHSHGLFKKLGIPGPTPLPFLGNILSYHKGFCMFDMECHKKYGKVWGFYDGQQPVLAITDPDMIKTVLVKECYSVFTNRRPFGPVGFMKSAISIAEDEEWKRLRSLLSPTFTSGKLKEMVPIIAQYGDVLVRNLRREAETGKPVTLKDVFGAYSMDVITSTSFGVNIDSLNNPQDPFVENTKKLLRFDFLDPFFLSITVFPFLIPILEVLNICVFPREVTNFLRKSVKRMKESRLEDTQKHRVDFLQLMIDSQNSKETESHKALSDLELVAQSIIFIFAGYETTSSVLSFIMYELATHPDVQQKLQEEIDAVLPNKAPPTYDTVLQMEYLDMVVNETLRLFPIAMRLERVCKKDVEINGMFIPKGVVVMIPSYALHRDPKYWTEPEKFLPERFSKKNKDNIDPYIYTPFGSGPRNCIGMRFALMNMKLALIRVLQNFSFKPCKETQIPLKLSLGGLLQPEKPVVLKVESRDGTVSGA
smiles,measurement,value
"Cc1c(C(=O)Nc2ccc(F)c(C#N)c2)c(C)n(C)c1C(=O)C(=O)NC(C)C(F)(F)F (stereo unspecified) [US12378192, Compound of formula I]",IC50,> 200 µM

# Source: BindingDB's records for patent US12378192 (Chia Tai Tianqing Pharmaceutical Group Co., 2025)
